Here are results for 21 compounds from ChEMBL document CHEMBL3244311, “Neuroleptics related to butaclamol. Synthesis and some psychopharmacological effects of a series of 3-aryl analogues” (J Med Chem, 1978).

The test system of data set [1] is Rattus norvegicus. Description: Antipsychotic activity in ip dosed Sprague-Dawley rat assessed as protection against epinephrine-induced mortality administered 1 hr prior to epinephrine-challenge measured up to 24 hrs. It is filed as functional.
Data set [2] deals with Rattus norvegicus. Description: Antipsychotic activity in ip dosed Sprague-Dawley rat assessed as suppression of conditioned avoidance response after 30 mins. It is filed as functional.
Data set [3] deals with Rattus norvegicus. The data set can be described thus: Relative adrenolytic potency, ratio of ED50 for protection against epinephrine-induced mortality in ip dosed Sprague-Dawley rat to MED for suppression of conditioned avoidance response in ip dosed Sprague-Dawley rat. It is filed as functional.
The species entered for data set [4] is Rattus norvegicus. Description: Toxicity in Sprague-Dawley rat assessed as catalepsy at 10 times MED after 1 to 24 hrs relative to control. The data set is classed as organism-based. The settings on record: in vivo.
For data set [5], the species on record is Rattus norvegicus. The data set can be described thus: Toxicity in Sprague-Dawley rat assessed as catalepsy at 10 times MED assessed as time required to reach peak effect. It is filed as organism-based. As to conditions: in vivo.
The test system of data set [6] is Rattus norvegicus. The data set can be described thus: Antipsychotic activity in ip dosed Sprague-Dawley rat assessed as inhibition of amphetamine-induced stereotyped-behavior administered 15 mins post amphetamine-challenge measured for 4 hrs. It is filed as functional. The settings on record: for minimal effective dose: read-out: MED.
For data set [7], the system named is Rattus norvegicus. The data set can be described thus: Ratio of MED for inhibition of amphetamine-induced stereotyped-behavior in ip dosed Sprague-Dawley rat to ED50 for suppression of conditioned avoidance response in ip dosed Sprague-Dawley rat. The data set is classed as functional.

For orientation: ED50 means the dose at which the effect has come halfway, by size or by number of responders. As for `Cl.O[C@]1(c2ccccc2)CCN2C[C@@H]3c4ccccc4CCc4cccc(c43)[C@H]2C1` (racemic), the median effective dose (ED50) in the data set on Rattus norvegicus [1] was found to be 5.5 mg/kg. Moreover, in the data set on Rattus norvegicus [2] (0.5 h), the 50% effective dose (ED50) is 3 mg/kg. Besides, the Ratio in the data set with Rattus norvegicus [3] stood at 2.2. Further, in the data set filed under Rattus norvegicus [4], the “%max” value is listed as 32%. Besides, the Time in the data set listed under Rattus norvegicus [5] worked out at 6 h. Further, in the data set with Rattus norvegicus [6], the inhibition entry was “Dose-dependent effect” and the minimal effective dose amounted to 2.5 mg/kg.

For `Cc1ccccc1[C@@]1(O)CCN2C[C@@H]3c4ccccc4CCc4cccc(c43)[C@H]2C1.Cl` (racemic), the median effective dose (ED50) in the data set on Rattus norvegicus [1] amounted to 6.4 mg/kg; in the data set on Rattus norvegicus [2] (0.5 h) it was 3.3 mg/kg. Further, the Ratio stood at 5.1 in the data set on Rattus norvegicus [3] and 0.38 in the data set with Rattus norvegicus [7]. Moreover, the “%max” value in the data set filed under Rattus norvegicus [4] turned out to be 61%. Moreover, the Time in the data set listed under Rattus norvegicus [5] was found to be 4 h. Moreover, the inhibition entry in the data set with Rattus norvegicus [6] is “Dose-dependent effect”. In addition, the minimal effective dose in the data set with Rattus norvegicus [6] is 1.25 mg/kg.

In the case of `Cl.O[C@]1(Cc2ccccc2)CCN2C[C@@H]3c4ccccc4CCc4cccc(c43)[C@H]2C1` (racemic), in the data set on Rattus norvegicus [1], the median effective dose (ED50) was above 40 mg/kg. In the data set on Rattus norvegicus [6], the inhibition result is “Dose-dependent effect” and the minimal effective dose was above 20 mg/kg.

Consider `COc1ccccc1[C@@]1(O)CCN2C[C@@H]3c4ccccc4CCc4cccc(c43)[C@H]2C1.Cl` (racemic), for which the ED50 with Rattus norvegicus [1] stood at 4 mg/kg. Also, the ED50 in the data set with Rattus norvegicus [2] (0.5 h) was found to be 0.92 mg/kg. Moreover, the Ratio with Rattus norvegicus [3] is recorded as 6.3. Moreover, the “%max” value in the data set filed under Rattus norvegicus [4] stood at 89%. Moreover, in the data set filed under Rattus norvegicus [5], the Time is 4 h. In the data set on Rattus norvegicus [6], the inhibition result is “Dose-dependent effect” and the minimal effective dose came to 0.63 mg/kg.

On to `COc1cccc([C@@]2(O)CCN3C[C@@H]4c5ccccc5CCc5cccc(c54)[C@H]3C2)c1.Cl` (racemic), for which the ED50 was determined as 2.7 mg/kg in the data set with Rattus norvegicus [1] and 1.4 mg/kg in the data set on Rattus norvegicus [2] (0.5 h). Moreover, in the data set on Rattus norvegicus [3], the Ratio came to 2.2. For the same compound, the “%max” value in the data set listed under Rattus norvegicus [4] is 83%. The Time in the data set filed under Rattus norvegicus [5] worked out at 6 h. Further, the inhibition entry in the data set with Rattus norvegicus [6] was “Dose-dependent effect”. Moreover, in the data set with Rattus norvegicus [6], the minimal effective dose was 1.25 mg/kg.

Regarding `COc1ccc([C@@]2(O)CCN3C[C@@H]4c5ccccc5CCc5cccc(c54)[C@H]3C2)cc1.Cl` (racemic), the values for the ED50 with Rattus norvegicus [1] and in the data set on Rattus norvegicus [2] (0.5 h) were 13.2 mg/kg and 5.8 mg/kg, respectively. Moreover, the Ratio in the data set with Rattus norvegicus [3] was 5.3; in the data set with Rattus norvegicus [7] it was 0.43. Besides, the “%max” value in the data set listed under Rattus norvegicus [4] worked out at 83%. Moreover, the Time in the data set filed under Rattus norvegicus [5] was determined as 6 h. Further, the inhibition result in the data set on Rattus norvegicus [6] was “Dose-dependent effect”. For the same compound, the minimal effective dose in the data set on Rattus norvegicus [6] was determined as 2.5 mg/kg.

Regarding `COc1ccc([C@@]2(O)CCN3C[C@@H]4c5ccccc5CCc5cccc(c54)[C@H]3C2)cc1OC.Cl` (racemic), the values for the ED50 with Rattus norvegicus [1] and in the data set with Rattus norvegicus [2] (0.5 h) were 1.1 mg/kg and 6 mg/kg, respectively. In addition, the Ratio in the data set on Rattus norvegicus [3] is given as 0.22. Moreover, in the data set filed under Rattus norvegicus [4], the “%max” value is 100%. Further, in the data set listed under Rattus norvegicus [5], the Time was determined as 4 h. The inhibition entry in the data set with Rattus norvegicus [6] is “Dose-dependent effect”. The minimal effective dose in the data set on Rattus norvegicus [6] is 5 mg/kg.

Turning to `COc1ccc([C@@]2(O)CCN3C[C@@H]4c5ccccc5CCc5cccc(c54)[C@H]3C2)c(OC)c1.Cl` (racemic), the ED50 with Rattus norvegicus [1] was 18 mg/kg. For the same compound, the median effective dose (ED50) in the data set with Rattus norvegicus [2] (0.5 h) was 16 mg/kg. Moreover, the Ratio in the data set with Rattus norvegicus [3] is on record as 1.8. The “%max” value in the data set filed under Rattus norvegicus [4] is listed as 44%. Besides, in the data set filed under Rattus norvegicus [5], the Time was 6 h. In addition, in the data set with Rattus norvegicus [6], the inhibition entry was “Dose-dependent effect” and the minimal effective dose amounted to 10 mg/kg.

Consider `Cl.O[C@]1(c2ccccc2Cl)CCN2C[C@@H]3c4ccccc4CCc4cccc(c43)[C@H]2C1` (racemic), for which the ED50 with Rattus norvegicus [1] was 11 mg/kg. Further, the ED50 with Rattus norvegicus [2] (0.5 h) came to 3.3 mg/kg. The Ratio in the data set on Rattus norvegicus [3] is reported as 4.4. The “%max” value in the data set listed under Rattus norvegicus [4] is 100%. The Time in the data set filed under Rattus norvegicus [5] stood at 4 h. Further, in the data set with Rattus norvegicus [6], the inhibition result was “Dose-dependent effect” and the minimal effective dose came out at 2.5 mg/kg.

As to `Cl.O[C@]1(c2cccc(F)c2)CCN2C[C@@H]3c4ccccc4CCc4cccc(c43)[C@H]2C1` (racemic), in the data set on Rattus norvegicus [1], the ED50 stood at 14.3 mg/kg. Also, the ED50 in the data set with Rattus norvegicus [2] (0.5 h) was 7 mg/kg. In the data set on Rattus norvegicus [3], the Ratio came out at 2.9. Moreover, in the data set filed under Rattus norvegicus [4], the “%max” value came to 100%. Besides, the Time in the data set listed under Rattus norvegicus [5] was 4 h. Besides, in the data set on Rattus norvegicus [6], the inhibition result is “Dose-dependent effect” and the minimal effective dose is 5 mg/kg.

For `Cl.O[C@]1(c2ccc(Br)cc2)CCN2C[C@@H]3c4ccccc4CCc4cccc(c43)[C@H]2C1` (racemic), the values for the 50% effective dose (ED50) with Rattus norvegicus [1] and in the data set on Rattus norvegicus [2] (0.5 h) were 6.9 mg/kg and 14 mg/kg, respectively. The Ratio in the data set on Rattus norvegicus [3] is on record as 0.35. In addition, the “%max” value in the data set filed under Rattus norvegicus [4] is recorded as 72%. Further, in the data set filed under Rattus norvegicus [5], the Time is 4 h. The inhibition result with Rattus norvegicus [6] is “Dose-dependent effect”. The minimal effective dose in the data set with Rattus norvegicus [6] came to 20 mg/kg.

Consider `Cl.O[C@]1(c2ccccc2C(F)(F)F)CCN2C[C@@H]3c4ccccc4CCc4cccc(c43)[C@H]2C1` (racemic), for which the 50% effective dose (ED50) with Rattus norvegicus [1] was above 20 mg/kg; with Rattus norvegicus [2] (0.5 h), 22.2 mg/kg. The Ratio in the data set on Rattus norvegicus [3] is reported as above 2; with Rattus norvegicus [7], 0.45. Further, the “%max” value in the data set filed under Rattus norvegicus [4] came to 100%. The Time in the data set listed under Rattus norvegicus [5] came out at 6 h. Moreover, in the data set with Rattus norvegicus [6], the inhibition entry was “Dose-dependent effect”. Further, the minimal effective dose with Rattus norvegicus [6] was 10 mg/kg.

For the compound `Cl.O[C@]1(c2cccs2)CCN2C[C@@H]3c4ccccc4CCc4cccc(c43)[C@H]2C1` (racemic), the figures for the ED50 with Rattus norvegicus [1] and in the data set on Rattus norvegicus [2] (0.5 h) were 22 mg/kg and 5.6 mg/kg, respectively. The Ratio with Rattus norvegicus [3] is recorded as 8.8; in the data set on Rattus norvegicus [7], 0.45. The “%max” value in the data set listed under Rattus norvegicus [4] is listed as 100%. Further, the Time in the data set filed under Rattus norvegicus [5] is 6 h. In addition, the inhibition result in the data set with Rattus norvegicus [6] was “Dose-dependent effect”. Also, the minimal effective dose in the data set with Rattus norvegicus [6] amounted to 2.5 mg/kg.

`Cl.O[C@]1(c2ccsc2)CCN2C[C@@H]3c4ccccc4CCc4cccc(c43)[C@H]2C1` (racemic): the ED50 with Rattus norvegicus [1] worked out at 90 mg/kg. Moreover, the ED50 in the data set with Rattus norvegicus [2] (0.5 h) turned out to be 8 mg/kg. The Ratio in the data set with Rattus norvegicus [3] is 18. In addition, the “%max” value in the data set listed under Rattus norvegicus [4] was 93%. In addition, the Time in the data set listed under Rattus norvegicus [5] came to 6 h. Moreover, in the data set with Rattus norvegicus [6], the inhibition result is “Dose-dependent effect” and the minimal effective dose stood at 5 mg/kg.

Turning to `Cl.O[C@]1(c2ccco2)CCN2C[C@@H]3c4ccccc4CCc4cccc(c43)[C@H]2C1` (racemic), the median effective dose (ED50) in the data set with Rattus norvegicus [1] came out at 82 mg/kg; with Rattus norvegicus [2] (0.5 h), 6.7 mg/kg. The Ratio with Rattus norvegicus [3] was found to be 16.4. For the same compound, in the data set listed under Rattus norvegicus [4], the “%max” value turned out to be 83%. For the same compound, the Time in the data set filed under Rattus norvegicus [5] was 4 h. Besides, in the data set with Rattus norvegicus [6], the inhibition result is “Dose-dependent effect”. Besides, the minimal effective dose in the data set with Rattus norvegicus [6] came to 5 mg/kg.

Take `Cl.O[C@]1(c2cccnc2)CCN2C[C@@H]3c4ccccc4CCc4cccc(c43)[C@H]2C1` (racemic): the ED50 in the data set on Rattus norvegicus [1] was 4.7 mg/kg. Besides, in the data set on Rattus norvegicus [2] (0.5 h), the ED50 stood at 1 mg/kg. Moreover, the Ratio in the data set with Rattus norvegicus [3] turned out to be 0.94. Further, the “%max” value in the data set filed under Rattus norvegicus [4] was found to be 94%. The Time in the data set listed under Rattus norvegicus [5] is 4 h. In the data set with Rattus norvegicus [6], the inhibition result was “Dose-dependent effect” and the minimal effective dose was determined as 5 mg/kg.

With `CN(C)CCCN1c2ccccc2Sc2ccc(Cl)cc21` [CHLORPROMAZINE], the Ratio in the data set with Rattus norvegicus [7] is on record as 1.

In the case of `OCCN1CCN(CCCN2c3ccccc3Sc3ccc(C(F)(F)F)cc32)CC1` [FLUPHENAZINE], the Ratio with Rattus norvegicus [7] turned out to be 1.

On to `O=C(CCCN1CCC(O)(c2ccc(Cl)cc2)CC1)c1ccc(F)cc1` [HALOPERIDOL], for which the Ratio in the data set with Rattus norvegicus [7] is on record as 1.

For `CSc1ccc2c(c1)N(CCC1CCCCN1C)c1ccccc1S2` (stereo unspecified) [THIORIDAZINE], the Ratio with Rattus norvegicus [7] is on record as 1.

Regarding Butaclamol, the ED50 in the data set with Rattus norvegicus [1] came out at 15 mg/kg; with Rattus norvegicus [2], 0.64 mg/kg. The Ratio in the data set on Rattus norvegicus [3] stood at 24; in the data set with Rattus norvegicus [7], 1. For the same compound, the MED in the data set with Rattus norvegicus [6] worked out at 0.63 mg/kg.
